Measurements: PubChem BioAssay (NCI)
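Step 1: Grow cells in 96-well plates. Step 2: Expose to compound for 48 hours at 5 concentrations. Step 3: Interpolate endpoints linearly; if unreached, use highest concentration. The concentration for 50% growth inhibition is given as GI50. TGI is the concentration that stops growth completely.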

What was measured:
Experiment in all cases: NCI anticancer screen, dose series, 48 h
[1] = system: SNB-75 CNS
[2] = system: MDA-MB-435
[3] = system: HCT-116 colon
[4] = system: CAKI-1 renal
[5] = system: SF-295 CNS
[6] = system: MCF7 breast
[7] = system: T-47D breast
[8] = system: OVCAR-3 ovarian
[9] = system: SK-OV-3 ovarian
[10] = system: MDA-MB-231 breast
[11] = system: RPMI-8226 leukemia

NS(=O)(=O)c1ccc(/C=C/c2ccc(O)cc2)cc1
TGI [1]: 78.6 µM | GI50 [2]: 20.3 µM | TGI [2]: > 100 µM | TGI [3]: 85.6 µM | GI50 [4]: 5.59 µM | TGI [4]: 32.6 µM | TGI [5]: 65 µM | TGI [6]: > 100 µM | TGI [7]: 71.6 µM | TGI [8]: 54.5 µM | TGI [9]: 59.5 µM | TGI [10]: 60.7 µM | GI50 [11]: 7.09 µM | TGI [11]: 39.3 µM

CC(C)N(C(C)C)S(=O)(=O)C[C@]12CC[C@H](CC13OCC(CS(=O)(=O)c1ccccc1)O3)C2(C)C (some centres undefined)
TGI [1]: > 100 µM | TGI [2]: > 100 µM | TGI [3]: > 100 µM | TGI [4]: > 100 µM | TGI [5]: > 83.8 µM | TGI [6]: > 100 µM | TGI [7]: > 100 µM | TGI [8]: > 70.8 µM | TGI [9]: > 100 µM | TGI [10]: > 100 µM | TGI [11]: > 100 µM

ClCCCCCc1c2nc(c(CCCCCCl)c3ccc([nH]3)c(CCCCCCl)c3ccc([nH]3)c(CCCCCCl)c3nc1C=C3)C=C2
TGI [1]: > 100 µM | TGI [2]: > 100 µM | TGI [3]: > 100 µM | TGI [4]: > 100 µM | TGI [5]: > 100 µM | TGI [6]: > 100 µM | TGI [7]: > 100 µM | TGI [8]: > 100 µM | TGI [9]: > 100 µM | TGI [10]: > 100 µM | TGI [11]: > 100 µM

O=C1CC(NCc2ccccc2)c2c(Cl)sc(Cl)c21 (centres undefined)
TGI [1]: 80.6 µM | TGI [2]: 85.2 µM | TGI [3]: 33.1 µM | TGI [4]: 53 µM | TGI [5]: > 100 µM | TGI [6]: 50.3 µM | TGI [7]: > 100 µM | TGI [8]: 47.3 µM | TGI [9]: > 100 µM | TGI [10]: 66.4 µM | TGI [11]: 6.82 µM

COc1cccc(C2c3cc4c(cc3OC(Nc3ccccc3)C2C)OCO4)c1OC (centres undefined)
TGI [1]: > 100 µM | TGI [2]: > 100 µM | TGI [3]: > 100 µM | TGI [4]: > 100 µM | TGI [5]: > 100 µM | TGI [6]: > 100 µM | TGI [7]: > 100 µM | TGI [8]: > 100 µM | TGI [9]: > 100 µM | TGI [10]: > 100 µM | TGI [11]: 17.8 µM

O=CN1CCN(C(=O)c2ccc(Cl)c(Cl)c2)C1=S
TGI [1]: 32.3 µM | TGI [2]: 31.8 µM | TGI [3]: 30.1 µM | TGI [4]: 28.1 µM | TGI [5]: 34.4 µM | TGI [6]: 25 µM | TGI [7]: 58 µM | TGI [8]: 28.3 µM | TGI [9]: 32.9 µM | TGI [10]: 30.8 µM | TGI [11]: 7.74 µM

OC1CSc2nc3ccccc3n2C1 (centres undefined)
TGI [1]: 44.8 µM | TGI [2]: > 100 µM | TGI [3]: > 100 µM | TGI [4]: > 100 µM | TGI [5]: > 100 µM | TGI [6]: > 100 µM | TGI [7]: > 100 µM | TGI [8]: > 100 µM | TGI [9]: > 100 µM | TGI [10]: > 100 µM | TGI [11]: > 100 µM

CCOc1cc2c(c(OCC)c1O)CC[C@@H]1[C@@H]2CC[C@]2(C)[C@@H](O)CC[C@@H]12
TGI [1]: 10.6 µM | TGI [2]: 3.05 µM | GI50 [3]: 801 nM | TGI [3]: 18.1 µM | TGI [4]: 32.1 µM | TGI [5]: 13.1 µM | TGI [6]: 53.2 µM | TGI [7]: 54.3 µM | GI50 [8]: 89.6 nM | TGI [8]: 3.08 µM | TGI [9]: 57.5 µM | TGI [10]: 24.3 µM | TGI [11]: 31.1 µM

CCN1CN(c2ccccc2)C2(CCN(CC(CC3OCCO3)c3ccc(F)cc3)CC2)C1=O (centres undefined)
TGI [1]: 93 µM | TGI [2]: 38.2 µM | TGI [3]: 11 µM | TGI [4]: 22.5 µM | TGI [5]: 18.9 µM | TGI [6]: 7.22 µM | TGI [7]: 38.9 µM | TGI [8]: 50.7 µM | TGI [9]: > 73.3 µM | TGI [10]: > 44.2 µM | TGI [11]: 60.2 µM

CC(=O)N(C(C)=O)c1cc2c3c(c1)CCCN3CCC2
TGI [1]: > 10 µM | TGI [2]: > 10 µM | TGI [3]: > 10 µM | TGI [4]: > 10 µM | TGI [5]: > 10 µM | TGI [6]: > 10 µM | TGI [7]: > 10 µM | TGI [8]: > 10 µM | TGI [9]: > 10 µM | TGI [10]: > 10 µM | TGI [11]: > 10 µM

COC(=O)CC1c2ccccc2N2C(=O)Cc3c([nH]c4ccccc34)C12 (centres undefined)
TGI [1]: > 100 µM | TGI [2]: > 100 µM | TGI [3]: > 100 µM | TGI [4]: > 100 µM | TGI [5]: > 100 µM | TGI [6]: > 100 µM | TGI [7]: > 100 µM | TGI [8]: > 100 µM | TGI [9]: > 100 µM | TGI [10]: > 100 µM | TGI [11]: > 100 µM

Cc1nc2sccn2c1/C=C1/C(=O)Nc2cccc(Cl)c21
TGI [1]: > 100 µM | TGI [2]: 39.3 µM | TGI [3]: > 100 µM | TGI [4]: > 100 µM | TGI [5]: > 100 µM | TGI [6]: > 100 µM | TGI [7]: > 100 µM | TGI [8]: > 100 µM | TGI [9]: > 100 µM | TGI [10]: > 100 µM | TGI [11]: > 100 µM

COc1ccc(NC(=S)c2ccoc2C)cc1CC(=O)OC(C)C
TGI [1]: 93.9 µM | TGI [2]: > 100 µM | TGI [3]: > 100 µM | TGI [4]: > 100 µM | TGI [5]: > 100 µM | TGI [6]: 51.5 µM | TGI [7]: > 100 µM | TGI [8]: > 100 µM | TGI [9]: > 100 µM | TGI [10]: > 100 µM | TGI [11]: > 100 µM

CN1CC2CN(Cc3ccccc3)CCN2c2cccnc21 (centres undefined)
TGI [1]: > 100 µM | TGI [2]: > 100 µM | TGI [3]: 37.7 µM | TGI [4]: > 100 µM | TGI [5]: > 100 µM | TGI [6]: > 100 µM | TGI [7]: > 100 µM | TGI [8]: > 100 µM | TGI [9]: > 100 µM | TGI [10]: > 100 µM | TGI [11]: > 100 µM
